Data set [1] has as its system p-AKT and p-ERK in epithelial cells of pleural effusion. The data set is described as follows: SCNP of pleural effusion, patient MCSF-015 (non-small cell lung cancer): p-AKT and p-ERK. In kind it is cell-based, human. As to the method: A procedure similar to that shown for Example 5 was performed. A pleural effusion was obtained from a patient (MCSF-015) with a diagnosis of non-small cell lung cancer with a white cell count of 150 million.
The HT-1376 epithelial bladder cancer cell line served as a positive control for EGF induced signaling. The control cell line was processed in parallel with the patient sample.
SCNP contour plots identify p-AKT and p-ERK signaling in the epithelial cell compartment only. […] EGF stimulation (5 min., 37° C.) activates the PI3K and Ras/MEK pathways which are measured by p-Akt and p-ERK respectively. […] Median fluorescent values of p-AKT and p-ERK under each treatment condition.

Data set [2] has as its system p-AKT and p-ERK (PI3K and MAP Kinase pathways) in epithelial cells of bladder washes. The data set is described as follows: SCNP of bladder wash samples: p-AKT and p-ERK at baseline and after EGF +/- GDC-0941. The data set is classed as cell-based, human. The method, then: Bladder washes from non-cancer (NC) patients (pts) (n=8) and confirmed/suspected bladder cancer (BC) pts (n=20) were collected using standard medical practice and shipped overnight on ice for processing within 24 hours. Antibodies against CD45, Cytokeratin (CK), and EpCAM were used to differentiate epithelial cells from leukocytes, while measurements of DNA aneuploidy (DAPI stain) allowed for distinction between tumor and normal epithelial cells. Signaling activity in the PI3K and MAP Kinase pathways was assessed by measuring intracellular levels of p-AKT and p-ERK both at baseline and in response to pathway modulation. A process similar to that shown in Example 1 was used.
(§1) Upon delivery, cells were pelleted, counted, rested for 1 hr at 37° C., followed by a 5 minute stimulation with EGF or vehicle+/−GDC-0941 200 nM added 1 hr prior to EGF addition to inhibit PI3K signaling After cell fixation and permeabilization, samples were stained with fluorophore-conjugated antibodies/DAPI cocktail, and the data acquired using multi-parametric flow cytometry. The epithelial bladder carcinoma cell line HT-1376 was used as a control for the epithelial phenotype and EGF signaling. A DNA index was determined using the lymphoid population in the pt samples as a diploid G0/G1 reference.

Data set [3] deals with pleural effusion cells. In words: Culture of pleural effusion cells (MCSF-04) in presence and absence of EGF. In kind it is cell-based, human. As to the method: (§2) Purpose: (1) Evaluate ability to detect epithelial cells in the pleural effusion sample. (2) Measure DNA content to evaluate whether detected cells are possibly originating from the tumor (aneuploid). (3) measure basal level p-AKT and p-ERK signaling in epithelial cells. (4) Measure evoked signaling after EGF stimulation in the same cell populations. (5) Measure signaling inhibition when the EGF is added after incubation with a PI3K inhibitor (GDC-0941). (6) Culture cells in the presence and absence of EGF to observe possible growth promoting effects and to potentially characterize the signaling of cells that expand.
Cells in culture: 1 million cells were plated in two wells of a 24-well plate in the presence and absence of EGF. The cells visually appeared healthy after 48 hrs in culture with some cells with elongated appearance like an epithelial cells. Some very large round cells were also observed. At day 8, both cultures had adherent and non-adherent cells. Counts were performed. The well without EGF contained 400,000 viable, non-adherent cells while the well in the presence +EGF contained 800,000. The patient specimen contained 15.87% epithelial cells that were mostly non-apoptotic. The DNA index is 1.37 indicating the epithelial cells are aneuploid.

For data set [4], the system named is p-AKT and p-ERK in epithelial cells of pleural effusion. The data set is described as follows: SCNP of pleural effusion, patient MCSF-04 (non-small cell lung cancer): p-AKT and p-ERK. In kind it is cell-based, human. The method, then:
A procedure similar to that shown for Example 1 was performed. A pleural effusion was obtained from a patient (MCSF-04) with a diagnosis of non-small cell lung cancer with a white cell count of 21 million.
as §2
Gating Scheme: The epithelial phenotype is based on the cells being positive for EpCAM and Cytokeratin stains, while expressing low levels of CD45.
SCNP contour plots show signaling in the epithelial cell compartment only. […] EGF stimulation (5 min., 37° C.) activates the PI3K and Ras/MEK pathways which are measured by p-AKT and p-ERK respectively. Attenuation of the EGF→p-AKT induced signaling in the presence of GDC-0941.

Data set [5] deals with p-AKT and p-ERK in epithelial cells of ascites fluid. The data set is described as follows: SCNP of ascites fluid, patient MCSF-02 (biliary cancer): p-AKT and p-ERK. In kind it is cell-based, human. The method, then:
A procedure similar to that shown for Example 5 was performed. Ascites fluid was obtained from a patient (MCSF-02) with a diagnosis of biliary cancer with a white cell count of 4.3 million. This example has the same purpose as Example 5 as applied to ascites fluid.
Gating Scheme: The epithelial phenotype is based on the cells being positive for EpCAM and cytokeratin, while expressing low levels of CD45. Positive staining for cleaved PARP (c-PARP) indicates apoptosis. DNA index: The DNA index of the epithelial cells is based on the DNA content of the cells in the epithelial gate divided by the DNA content of the lymphocytes.
The biliary specimen contained 0.17% epithelial cells that were mostly non-apoptotic. This small percentage equates to ˜10 cells/condition. From this small population EGF induced p-AKT signaling was observed. A 9-fold increase in p-AKT levels were observed after […]. EGF stimulation. Induced signaling was attenuated with a 1 hour pre-incubation with 200 nM GDC-0941 (“GDC”). […] This is in contrast to the control cell line.

For data set [6], the system named is p-AKT and p-ERK in epithelial cells of pleural effusion. The data set is described as follows: SCNP of pleural effusion, patient MCSF-06 (non-small cell lung cancer): p-Akt and p-ERK. The data set is classed as cell-based, human. As to the method: A procedure similar to that shown for Example 5 was performed. A pleural effusion was obtained from a patient (MCSF-06) with a diagnosis of non-small cell lung cancer with a white cell count of 6.8 million. This example has the same Purpose as Example 5 as applied to lung cancer. The HT-1376 epithelial bladder cancer cell line served as a positive control for EGF induced signaling.
SCNP contour plots identify p-Akt and p-ERK signaling in the epithelial cell compartment only. […] EGF stimulation (5 min., 37° C.) activates the PI3K and Ras/MEK pathways which are measured by p-Akt and p-ERK respectively. […] Median fluorescent values of p-Akt and p-ERK under each treatment condition (see FIG. 5). The control cell line was processed in parallel with the patient sample.

The subject of data set [7] is HT-1376 cell line. The data set is described as follows: Control cell line HT-1376 processed with the ascites sample, EGF-induced p-Erk. The conditions noted are these: HT-1376 control cell line. In kind it is cell-based. As to the method: as §1
The cell line control has what appears to be a lower basal p-ERK level, however one must be careful when comparing absolute fluorescent levels between different cell types (ie, cell line vs primary cells) due to differences in autofluoresence and degree of non-specific antibody binding. […] The DNA index is near 1.0 indicating these cells are not aneuploid.

Data set [8] deals with HT-1376 cells. The data set is described as follows: HT-1376 bladder cancer cells spiked into whole blood, EGF-induced pAKT and pERK. In kind it is cell-based. As to conditions: HT-1376 in whole blood; 200 ng/mL EGF for 5 minutes at 37° C. As to the method: A procedure similar to that shown for Example 1 was performed.
Two aliquots of 1 million cells from a bladder cancer cell line, HT-1376, were spiked into 4 mls of whole blood in an effort to determine a lower limit of detection for bladder cancer cells in blood. The epithelial cell line, HT-1376 (ATCC #CRL-1472), which has high (positive) levels of cytokeratin, low (positive) levels for EpCAM, and negative for CD45. One aliquot was preincubated with PI3K inhibitor GDC-0941 at 10 uM and another was modulated with 200 ng/mL EGF for 5 minutes at 37° C. Another aliquot of whole blood contained no HT-1376 cells or other reagents. BD phosflow fix/lyse reagent was used followed by methanol. EGF was used as a modulator to induce pAKT and pERK responses, 9.4 and 3.7 fold responses respectively.

For data set [9], the system named is EGF signaling in epithelial cells of ascites or pleural effusion samples. The data set is described as follows: Summary of SCNP analysis of ascites or pleural effusion samples. The data set is classed as cell-based, human. The source says:
This analysis identified epithelial cells with inducible EGF signaling in ⅘ ascites or pleural effusion samples. In each of the 4 positive cases, induced signaling was inhibited by the PI3K inhibitor, GDC-0941.

The test system of data set [10] is MDS patients. The conditions noted are these: cited from earlier work.

The values below come from US20130129681A1, “METHODS FOR DIAGNOSING SOLID TUMORS” (NODALITY, INC., priority 2011, published 2013).

“Also recorded” adds a separate entry of the source.

Turning to “EGF: Epidermal growth factor, growth factor used as modulator to induce p-AKT and p-ERK”, the “EGF induction, above basal signaling, of p-Akt and p-ERK in epithelial cells” value in data set [1] (MCSF-015, EGF 5 min., 37° C.) is recorded as “strong”. Moreover, the “EGF-induced p-AKT and p-ERK signaling, increase over baseline” value in [2] (3/10 BC evaluable bladder wash samples, 5 minute stimulation with EGF) was 2-3 fold. Besides, in [2] (non-cancer (NC) bladder wash specimens, 5 minute stimulation with EGF), the “EGF-induced signaling in NC specimens” value is given as “no EGF-induced signaling was observed”. The “viable, non-adherent cells per well at day 8” value in data set [3] (1 million cells plated, 24-well plate, presence of EGF (well without EGF 400,000)) is 800,000 cells. In addition, in data set [3] (MCSF-04 cells, EGF induced condition), the proliferation in culture result is “Proliferation was observed”. For the same compound, in data set [4] (MCSF-04 pleural effusion, EGF 5 min., 37° C.), the “EGF induction of p-AKT and p-ERK in epithelial cells” value is recorded as “strong”. In data set [5] (MCSF-02 ascites), the “EGF induction of p-AKT in epithelial cells” value was “strong” and the “EGF induction of p-Erk in epithelial cells” value is “no significant increase above baseline; also recorded: no p-Erk induction above baseline was detected”. Besides, the “increase in p-AKT levels after EGF stimulation” value in [5] (MCSF-02 ascites epithelial cells, 10 mins. EGF stimulation) worked out at 9 fold. Further, the “EGF induction, above basal signaling, of p-Akt and p-ERK in epithelial cells” value in data set [6] (MCSF-06, EGF 5 min., 37° C.) is “strong”. Also, the “EGF induction of p-Erk in control cell line” value in data set [7] is recorded as “observed”. In data set [8], the “EGF-induced pAKT response” value is recorded as 9.4 fold and the “EGF-induced pERK response” value came to 3.7 fold. Further, the “samples in which epithelial cells with inducible EGF signaling were identified” value in data set [9] (ascites or pleural effusion samples) is “⅘”.

With `CCOC(=O)[C@@H](N)CCC(=O)N[C@@H](CSCc1ccccc1)C(=O)N[C@@H](C(=O)OCC)c1ccccc1` [TLK-199], in data set [10], the “hematologic response in trial” value is listed as “hematologic improvement in all three hematopoietic lineages”; the toxicities in trial entry is “limited to infusion reactions, nausea, chills and bone pain”.

`CS(=O)(=O)N1CCN(Cc2cc3nc(-c4cccc5[nH]ncc45)nc(N4CCOCC4)c3s2)CC1` [GDC-0941]: the “effect on EGF-induced p-Akt signaling” value in data set [1] (MCSF-015 epithelial cells) and in data set [6] (MCSF-06 epithelial cells) was “Attenuation; also recorded: attenuated” throughout. For the same compound, the “effect on basal p-Akt signaling” value in [1] (MCSF-015 epithelial cells) and in data set [6] (MCSF-06 epithelial cells) was “attenuated” throughout. Moreover, the “effect on p-ERK signaling” value in data set [1] (MCSF-015 epithelial cells) and in data set [6] (MCSF-06 epithelial cells) was “but not the p-ERK signaling” in each case. Also, the “prevention of EGF-induced p-AKT and p-ERK signaling” value in [2] (BC samples, GDC-0941 200 nM added 1 hr prior to EGF) is “preventable”. In addition, the “effect on EGF-induced p-AKT signaling” value is on record as “attenuated; also recorded: Attenuation” in data set [4] (MCSF-04 epithelial cells, EGF added after incubation with GDC-0941) and “attenuated” in data set [5] (MCSF-02, 1 hour pre-incubation with 200 nM GDC-0941). Also, the “effect on basal p-AKT signaling” value in data set [4] (MCSF-04 epithelial cells, GDC-0941 incubation) is reported as “attenuated”. Besides, the “effect on basal (unstim) p-AKT level” value in [5] (MCSF-02, 200 nM GDC-0941) is listed as “inability of the PI3K inhibitor to decrease p-AKT beyond the basal”. Besides, the “basal p-ERK, unstimulated condition versus GDC containing sample” value in [5] (MCSF-02 epithelial cells) was “higher than the GDC containing sample”. Further, the “effect on EGF-induced signaling in the positive samples” value in data set [9] (each of the 4 positive ascites or pleural effusion cases) is recorded as “inhibited”.
